Source: patent US20240051931A1, “HDAC INHIBITORS” (University of Pittsburgh - Of the Commonwealth System of …, priority 2020, published 2024)

Tests used:
PanHDAC = PanHDAC activity at fixed concentration (Table 2); assay type: biochemical; set-up: unit not given here; conditions: compound at 1 uM
HDAC 6 = target: T1, HDAC 6 (Homo sapiens, UniProt Q9UBN7); assay: HDAC 6 activity at fixed concentration (Table 2); assay type: biochemical; set-up: unit not given here; conditions: compound at 50 nM
T1 sequence (Q9UBN7 1-1215): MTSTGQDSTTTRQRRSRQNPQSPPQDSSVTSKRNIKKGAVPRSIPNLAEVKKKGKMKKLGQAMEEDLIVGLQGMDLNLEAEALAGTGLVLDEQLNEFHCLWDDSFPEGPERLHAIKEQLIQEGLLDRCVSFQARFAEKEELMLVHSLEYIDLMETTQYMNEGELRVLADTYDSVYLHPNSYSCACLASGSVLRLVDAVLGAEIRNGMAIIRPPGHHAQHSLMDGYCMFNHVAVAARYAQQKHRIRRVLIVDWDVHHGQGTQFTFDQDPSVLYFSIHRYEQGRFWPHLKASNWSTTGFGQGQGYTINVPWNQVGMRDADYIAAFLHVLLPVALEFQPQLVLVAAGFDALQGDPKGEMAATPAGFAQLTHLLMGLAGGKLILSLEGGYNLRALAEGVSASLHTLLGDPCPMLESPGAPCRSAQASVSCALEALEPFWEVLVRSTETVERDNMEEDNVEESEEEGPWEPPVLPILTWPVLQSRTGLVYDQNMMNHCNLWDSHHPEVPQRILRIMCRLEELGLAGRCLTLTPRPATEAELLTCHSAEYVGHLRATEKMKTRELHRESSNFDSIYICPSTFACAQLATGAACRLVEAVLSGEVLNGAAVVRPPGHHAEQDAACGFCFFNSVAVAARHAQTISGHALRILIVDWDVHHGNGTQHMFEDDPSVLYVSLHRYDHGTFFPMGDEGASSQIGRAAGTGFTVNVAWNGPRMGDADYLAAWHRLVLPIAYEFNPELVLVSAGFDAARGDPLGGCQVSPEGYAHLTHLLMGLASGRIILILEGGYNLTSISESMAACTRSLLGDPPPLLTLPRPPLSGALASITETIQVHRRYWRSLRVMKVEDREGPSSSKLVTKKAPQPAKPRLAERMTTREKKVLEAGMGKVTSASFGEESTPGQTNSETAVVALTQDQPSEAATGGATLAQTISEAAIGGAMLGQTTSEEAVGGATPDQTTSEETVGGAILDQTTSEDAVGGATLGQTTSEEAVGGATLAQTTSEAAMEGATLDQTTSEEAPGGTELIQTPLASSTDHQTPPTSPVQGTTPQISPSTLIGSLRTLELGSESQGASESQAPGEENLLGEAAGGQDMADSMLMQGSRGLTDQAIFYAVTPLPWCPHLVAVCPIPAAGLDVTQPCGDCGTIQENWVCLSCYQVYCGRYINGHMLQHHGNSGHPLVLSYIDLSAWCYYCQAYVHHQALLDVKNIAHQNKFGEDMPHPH

| SMILES | PanHDAC at 1 uM (PanHDAC) | HDAC 6 at 50 nM (HDAC 6) |
| --- | --- | --- |
| O=C(NO)C1CCc2cc(Cl)ccc2O1 (centres unmarked) [Compound 1-1] | 0 | 33 |
| O=C(NO)C1CCc2cccc(NS(=O)(=O)c3ccc(F)cc3)c2O1 (centres unmarked) [Compound 1-2] | 0 | 5 |
| O=C(NO)[C@@H]1CCc2ccccc2O1 [Compound 1-3] | 0 | 46 |
| O=C(NO)[C@H]1CCc2ccccc2O1 [Compound 1-4] | 0 | 47 |
| COc1ccc(C(=O)Nc2ccc3c(c2)CCC(C(=O)NO)O3)cc1 (centres unmarked) [Compound 1-5] | 0 | 29 |
| O=C(Nc1ccc2c(c1)CCC(C(=O)NO)O2)c1ccc(S(F)(F)(F)(F)F)cc1 (centres unmarked) [Compound 1-6] | 0 | 41 |
| O=C(NO)C1CCc2cc(CCCOc3ccc(F)cc3)ccc2O1 (centres unmarked) [Compound 1-7] | 0 | 35 |
| O=C(Nc1cccc2c1OC(C(=O)NO)CC2)OCc1ccccc1 (centres unmarked) [Compound 1-8] | 0 | 0 |
| O=C(Nc1ccc2c(c1)CCC(C(=O)NO)O2)OCc1ccccc1 (centres unmarked) [Compound 1-9] | 0 | 50 |
| O=C(NO)C1CCc2cc(C#CCOc3ccc(F)cc3)ccc2O1 (centres unmarked) [Compound 1-10] | 0 | 42 |
| C#Cc1ccc2c(c1)CCC(C(=O)NO)O2 (centres unmarked) [Compound 1-11] | 3 | 25 |
| O=C(NCc1ccccc1)Nc1cccc2c1OC(C(=O)NO)CC2 (centres unmarked) [Compound 1-12] | 0 | 28 |
| O=C(Nc1cccc2c1OC(C(=O)NO)CC2)OCc1ccccc1Cl (centres unmarked) [Compound 1-13] | 0 | 23 |
| O=C(NO)C1CCc2cc(NS(=O)(=O)c3cc(Cl)cc(Cl)c3)ccc2O1 (centres unmarked) [Compound 1-14] | 21 | 0 |
| O=C(NCc1ccc(Cl)c(C(F)(F)F)c1)Nc1ccc2c(c1)CCC(C(=O)NO)O2 (centres unmarked) [Compound 1-15] | 0 | 26 |
| O=C(NO)C1CCc2cc(CCCOC(=O)N3CCc4ccccc4C3)ccc2O1 (centres unmarked) [Compound 1-16] | 0 | 73 |
| O=C(NO)C1CCc2ccc(O)cc2O1 (centres unmarked) [Compound 1-17] | 0 | 40 |
| O=C(NO)C1CCc2cc(-c3ccc(F)cc3)ccc2O1 (centres unmarked) [Compound 1-18] | 0 | 68 |
| O=C(NO)C1CCc2cc(C#CCCC(=O)N3CCc4ccccc4C3)ccc2O1 (centres unmarked) [Compound 1-19] | 0 | 27 |
| O=C(NO)C1CCc2ccc(OCc3ccc(C(F)(F)F)cc3)cc2O1 (centres unmarked) [Compound 1-20] | 0 | 32 |
| O=C(NO)C1CCc2cc(-c3ccc(Cl)c(Cl)c3)ccc2O1 (centres unmarked) [Compound 1-21] | 0 | 73 |
| C[C@@H]1Cc2ccccc2O[C@@H]1C(=O)NO [Compound 1-22] | 0 | 0 |

| SMILES | PanHDAC at 1 uM (PanHDAC) | HDAC 6 at 50 nM (HDAC 6) |
| --- | --- | --- |
| O=C(NO)C1CCc2cc(-c3ccc(-c4ccccc4)cc3)ccc2O1 (centres unmarked) [Compound 1-23] | 0 | 50 |
| O=C(NO)C1CCc2ccc(OCc3ccccn3)cc2O1 (centres unmarked) [Compound 1-24] | 0 | 23 |
| O=C(NO)C1CCc2ccc(OCCOc3ccc(F)cc3)cc2O1 (centres unmarked) [Compound 1-25] | 0 | 0 |
| O=C(Nc1ccc2c(c1)CC[C@@H](C(=O)NO)O2)c1cc(Cl)cc(Cl)c1 [Compound 1-26] | 0 | 20 |
| CN1CC(C(=O)NO)Oc2ccccc21 (centres unmarked) [Compound 1-27] | 0 | 31 |
| Cn1ccc2cc(-c3ccc4c(c3)CCC(C(=O)NO)O4)ccc21 (centres unmarked) [Compound 1-28] | 0 | 44 |
| CO[C@@H]1C[C@@H](C(=O)NO)Oc2ccccc21 [Compound 1-29] | 0 | 37 |
| CC(C)COC(=O)Nc1cccc2c1OC(C(=O)NO)CC2 (centres unmarked) [Compound 1-30] | 0 | 29 |
| O=C(NO)C1CCc2cccc(NS(=O)(=O)CC(F)(F)F)c2O1 (centres unmarked) [Compound 1-31] | 0 | 41 |
| COc1ccc(COC(=O)Nc2ccc3c(c2)CCC(C(=O)NO)O3)cc1 (centres unmarked) [Compound 1-32] | 14 | 70 |
| O=C(Nc1ccc2c(c1)CCC(C(=O)NO)O2)OCc1ccccc1Cl (centres unmarked) [Compound 1-33] | 0 | 32 |
| O=C(Nc1cccc2c1O[C@@H](C(=O)NO)CC2)OCc1ccccc1Cl [Compound 1-34] | 0 | 13 |
| O=C(NO)C1CCc2cccc(NS(=O)(=O)c3cccc4ccccc34)c2O1 (centres unmarked) [Compound 1-35] | 0 | 0 |
| O=C(NCCc1c[nH]c2ccccc12)Nc1cccc2c1OC(C(=O)NO)CC2 (centres unmarked) [Compound 1-36] | 0 | 6 |
| CS(=O)(=O)Nc1cccc2c1OC(C(=O)NO)CC2 (centres unmarked) [Compound 1-37] | 6 | 2 |
| Cc1ccc(S(=O)(=O)Nc2cccc3c2OC(C(=O)NO)CC3)cc1 (centres unmarked) [Compound 1-38] | 0 | 21 |
| O=C(NCc1cccc(S(F)(F)(F)(F)F)c1)Nc1cccc2c1OC(C(=O)NO)CC2 (centres unmarked) [Compound 1-39] | 0 | 34 |
| O=C(Nc1ccc(F)cc1)Nc1cccc2c1OC(C(=O)NO)CC2 (centres unmarked) [Compound 1-40] | 0 | 30 |
| O=C(Cc1c[nH]c2ccccc12)Nc1ccc2c(c1)CCC(C(=O)NO)O2 (centres unmarked) [Compound 1-41] | 0 | 55 |
| O=C(Nc1cccc2c1OC(C(=O)NO)CC2)OCc1ccc(C(F)(F)F)cc1 (centres unmarked) [Compound 1-42] | 0 | 14 |
| O=C(NCc1cccc(S(F)(F)(F)(F)F)c1)Nc1ccc2c(c1)CCC(C(=O)NO)O2 (centres unmarked) [Compound 1-43] | 0 | 34 |
